Source: ChEMBL document CHEMBL3217484, “N1-Benzyl substituted cambinol analogues as isozyme selective inhibitors of the sirtuin family of protein deacetylases” (Medchemcomm, 2011)
pIC50: −log10 of the molar value.

Columns and labels:
[1] = target: T1, NAD-dependent protein deacetylase sirtuin-2 (Homo sapiens) (UniProt Q8IXJ6); assay: Inhibition of human recombinant SIRT2 using fluor de Lys as substrate at 60 uM after 1 hr by fluorimeter analysis
T1 sequence (whole entry): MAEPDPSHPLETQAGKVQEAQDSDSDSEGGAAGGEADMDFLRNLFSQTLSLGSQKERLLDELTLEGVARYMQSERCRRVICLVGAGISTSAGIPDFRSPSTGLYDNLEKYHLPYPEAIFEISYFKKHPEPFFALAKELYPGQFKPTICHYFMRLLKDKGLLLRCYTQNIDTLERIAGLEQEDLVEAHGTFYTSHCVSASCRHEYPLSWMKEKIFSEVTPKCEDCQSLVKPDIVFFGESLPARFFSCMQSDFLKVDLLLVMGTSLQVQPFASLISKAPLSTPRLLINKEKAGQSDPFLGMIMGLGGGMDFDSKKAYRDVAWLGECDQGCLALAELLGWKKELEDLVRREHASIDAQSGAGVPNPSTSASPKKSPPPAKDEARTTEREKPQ

[2] = target: T2, NAD-dependent protein deacetylase sirtuin-1 (Homo sapiens) (UniProt Q96EB6); assay: Inhibition of human recombinant SIRT1 using fluor de Lys as substrate at 60 uM after 1 hr by fluorimeter analysis
T2 sequence (whole entry): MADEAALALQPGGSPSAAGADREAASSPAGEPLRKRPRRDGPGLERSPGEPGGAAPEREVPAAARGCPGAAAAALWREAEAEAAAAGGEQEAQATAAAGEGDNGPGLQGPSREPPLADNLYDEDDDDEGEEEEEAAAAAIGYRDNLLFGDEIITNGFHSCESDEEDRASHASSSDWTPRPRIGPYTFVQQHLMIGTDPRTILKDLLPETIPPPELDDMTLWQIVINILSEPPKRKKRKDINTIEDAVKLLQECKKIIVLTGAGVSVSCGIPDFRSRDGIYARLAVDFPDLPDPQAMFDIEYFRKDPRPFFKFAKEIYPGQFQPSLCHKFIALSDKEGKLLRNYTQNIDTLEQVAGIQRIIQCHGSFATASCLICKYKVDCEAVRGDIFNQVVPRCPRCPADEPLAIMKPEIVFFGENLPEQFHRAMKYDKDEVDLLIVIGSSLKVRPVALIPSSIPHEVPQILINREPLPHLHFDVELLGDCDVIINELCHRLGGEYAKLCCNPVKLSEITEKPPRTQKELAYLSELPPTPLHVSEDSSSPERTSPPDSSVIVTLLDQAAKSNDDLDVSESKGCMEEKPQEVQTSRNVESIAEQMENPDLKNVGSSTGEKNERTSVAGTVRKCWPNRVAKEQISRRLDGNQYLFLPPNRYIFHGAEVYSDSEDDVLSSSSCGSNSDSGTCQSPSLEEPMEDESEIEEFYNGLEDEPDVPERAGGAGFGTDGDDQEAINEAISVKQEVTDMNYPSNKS

[3] = target: T3, NAD-dependent protein deacetylase sirtuin-1 (Homo sapiens, UniProt Q96EB6); assay: Inhibition of human recombinant SIRT1 using fluor de Lys as substrate after 1 hr by fluorimeter analysis
T3 sequence (Q96EB6 whole entry): T2 sequence (whole entry)

[4] = target: T4, NAD-dependent protein deacetylase sirtuin-2 (Homo sapiens, UniProt Q8IXJ6); assay: Inhibition of human recombinant SIRT2 using fluor de Lys as substrate after 1 hr by fluorimeter analysis
T4 sequence (Q8IXJ6 whole entry): T1 sequence (whole entry)

H1299 = assay: Inhibition of sirtuin in human H1299 cells assessed increase in alpha-tubulin acetylation at 60 uM after 24 hrs by Western blot analysis in presence of trichostatin-A relative to control; assay type: cell-based

inhibition [1] [%] | inhibition [2] [%] | pIC50 [3] | pIC50 [4] | Compound | fold change (FC) (H1299)
45.1 | 23 |  |  | O=c1[nH]c(=S)n(Cc2ccccc2)c(-c2ccccc2)c1Cc1ccccc1 | 
71.8 | 38 | 4.21 | 4.96 | CCCOc1ccc(Cn2c(-c3ccccc3)c(Cc3c(OC)ccc4ccccc34)c(=O)[nH]c2=S)cc1 | 
37.7 | 36.2 |  |  | COc1ccc2ccccc2c1Cc1c(-c2ccccc2)n(C)c(=S)[nH]c1=O | 
73.4 |  | 4.24 | 4.92 | COc1ccc(Cn2c(-c3ccccc3)c(Cc3c(O)ccc4ccccc34)c(=O)[nH]c2=S)cc1 | 
85.4 | 15.6 | < 3.92 | 5.22 | CCCOc1ccc(Cn2c(-c3ccccc3)c(Cc3c(O)ccc4ccccc34)c(=O)[nH]c2=S)cc1 | 
66.1 | 8.8 |  |  | COc1ccc(Cn2c(-c3ccccc3)c(Cc3c(OC)ccc4ccccc34)c(=O)[nH]c2=S)cc1 | 
27 | 1.8 |  |  | O=c1cc(-c2ccccc2)n(Cc2ccccc2)c(=S)[nH]1 | 
65.1 | 22.8 |  |  | CCCOc1ccc(Cn2c(-c3ccccc3)c(Cc3c(OCc4ccccc4)ccc4ccccc34)c(=O)[nH]c2=S)cc1 | 
88.9 | 13.4 | < 3.92 | 5.40 | CCOc1ccc(Cn2c(-c3ccccc3)c(Cc3c(O)ccc4ccccc34)c(=O)[nH]c2=S)cc1 | 1.7
62 | 10.8 |  |  | O=c1[nH]c(=S)n(Cc2ccccc2)c(-c2ccccc2)c1Cc1c(O)ccc2ccccc12 | 
72.2 | 19.3 | < 3.92 | 4.80 | CCOc1ccc(Cn2c(-c3ccccc3)c(Cc3c(OC)ccc4ccccc34)c(=O)[nH]c2=S)cc1 | 
56.9 | 29.8 |  |  | COc1ccc(Cn2c(-c3ccccc3)c(Cc3c(OCc4ccccc4)ccc4ccccc34)c(=O)[nH]c2=S)cc1 | 
 |  |  |  | O=c1[nH]c(=S)[nH]c(-c2ccccc2)c1Cc1c(O)ccc2ccccc12 | 1.3
37.7 |  |  |  | COc1ccc2ccccc2c1Cc1c(-c2ccccc2)n(Cc2ccccc2)c(=S)[nH]c1=O | 
37.3 | 11.5 |  |  | CCCCn1c(-c2ccccc2C)c(Cc2c(OC)ccc3ccccc23)c(=O)[nH]c1=S | 
63.3 | 8.5 |  |  | CCCCOc1ccc(Cn2c(-c3ccccc3)c(Cc3ccccc3)c(=O)[nH]c2=S)cc1 | 
67 | 32.2 |  |  | COc1ccc(Cn2c(-c3ccccc3)c(Cc3ccccc3)c(=O)[nH]c2=S)cc1 | 
49.4 | 18.4 |  |  | CCCCn1c(-c2ccc(Cl)cc2)c(Cc2c(OC)ccc3ccccc23)c(=O)[nH]c1=S | 
66.1 | 32.7 |  |  | CCCCOc1ccc(Cn2c(-c3ccccc3)c(Cc3c(OC)ccc4ccccc34)c(=O)[nH]c2=S)cc1 | 
73.3 | 35 | 4.17 | 5.00 | CCOc1ccc(Cn2c(-c3ccccc3)c(Cc3ccccc3)c(=O)[nH]c2=S)cc1 | 
48.4 | 25.4 |  |  | O=c1[nH]c(=S)n(Cc2ccccc2)c(-c2ccccc2)c1Cc1c(OCc2ccccc2)ccc2ccccc12 | 
67.2 | 36.6 |  |  | CCOc1ccc(Cn2c(-c3ccccc3)c(Cc3c(OCc4ccccc4)ccc4ccccc34)c(=O)[nH]c2=S)cc1 | 
